{"source": "ChEMBL document CHEMBL1156112", "about": "“Discovery of 3-(1H-indol-3-yl)-4-[2-(4-methylpiperazin-1-yl)quinazolin-4-yl]pyrrole-2,5-dione (AEB071), a potent and selective inhibitor of protein kinase C isotypes” (J Med Chem, 2009)", "key": {"[1]": {"biological_target": "Protein kinase C alpha type (Homo sapiens, UniProt P17252)", "assay": "Inhibition of PKCalpha by SPA"}, "[2]": {"biological_target": "Protein kinase C beta type (Homo sapiens, UniProt P05771)", "sequence (P05771 whole entry)": "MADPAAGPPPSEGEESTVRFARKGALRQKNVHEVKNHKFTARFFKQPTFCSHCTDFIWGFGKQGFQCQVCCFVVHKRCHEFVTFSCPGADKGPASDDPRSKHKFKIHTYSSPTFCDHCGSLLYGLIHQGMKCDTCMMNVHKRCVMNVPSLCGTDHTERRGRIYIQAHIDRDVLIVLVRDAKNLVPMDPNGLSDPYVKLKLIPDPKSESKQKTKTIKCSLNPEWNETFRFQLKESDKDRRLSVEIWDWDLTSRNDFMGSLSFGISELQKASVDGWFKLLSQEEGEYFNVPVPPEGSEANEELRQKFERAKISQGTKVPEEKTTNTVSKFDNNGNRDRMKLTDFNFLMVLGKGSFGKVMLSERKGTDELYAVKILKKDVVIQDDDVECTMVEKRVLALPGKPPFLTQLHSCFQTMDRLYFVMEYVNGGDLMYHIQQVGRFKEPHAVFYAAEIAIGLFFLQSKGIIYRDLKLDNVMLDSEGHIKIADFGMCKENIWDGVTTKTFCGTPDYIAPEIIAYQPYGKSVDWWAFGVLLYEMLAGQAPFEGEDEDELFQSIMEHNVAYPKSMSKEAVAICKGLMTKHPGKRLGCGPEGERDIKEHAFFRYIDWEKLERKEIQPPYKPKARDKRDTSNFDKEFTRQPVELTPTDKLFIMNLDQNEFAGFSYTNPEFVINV", "assay": "Inhibition of PKCbeta1 by SPA"}, "[3]": {"biological_target": "Protein kinase C delta type (Homo sapiens, UniProt Q05655)", "sequence (Q05655 whole entry)": "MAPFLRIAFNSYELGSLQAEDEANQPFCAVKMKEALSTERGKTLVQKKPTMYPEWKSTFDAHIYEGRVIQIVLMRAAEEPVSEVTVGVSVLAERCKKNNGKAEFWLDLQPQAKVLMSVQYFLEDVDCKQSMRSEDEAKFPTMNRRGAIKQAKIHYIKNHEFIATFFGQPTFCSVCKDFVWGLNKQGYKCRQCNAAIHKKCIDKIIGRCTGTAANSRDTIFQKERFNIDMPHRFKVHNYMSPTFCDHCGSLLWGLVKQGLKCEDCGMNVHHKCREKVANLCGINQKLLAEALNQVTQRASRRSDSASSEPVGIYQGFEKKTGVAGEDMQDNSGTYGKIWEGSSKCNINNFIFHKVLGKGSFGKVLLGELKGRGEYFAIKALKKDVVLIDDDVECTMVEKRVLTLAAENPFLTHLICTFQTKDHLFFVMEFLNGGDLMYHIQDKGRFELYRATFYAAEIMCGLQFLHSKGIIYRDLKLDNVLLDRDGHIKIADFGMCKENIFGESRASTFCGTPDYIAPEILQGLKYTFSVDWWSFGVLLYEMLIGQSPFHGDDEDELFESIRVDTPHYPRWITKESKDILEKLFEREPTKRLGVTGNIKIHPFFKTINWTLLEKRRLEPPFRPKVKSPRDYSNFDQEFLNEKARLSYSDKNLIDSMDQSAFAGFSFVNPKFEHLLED", "assay": "Inhibition of PKCdelta by SPA"}, "[4]": {"biological_target": "T1, Protein kinase C epsilon type (Homo sapiens, UniProt Q02156)", "T1 sequence (Q02156 whole entry)": "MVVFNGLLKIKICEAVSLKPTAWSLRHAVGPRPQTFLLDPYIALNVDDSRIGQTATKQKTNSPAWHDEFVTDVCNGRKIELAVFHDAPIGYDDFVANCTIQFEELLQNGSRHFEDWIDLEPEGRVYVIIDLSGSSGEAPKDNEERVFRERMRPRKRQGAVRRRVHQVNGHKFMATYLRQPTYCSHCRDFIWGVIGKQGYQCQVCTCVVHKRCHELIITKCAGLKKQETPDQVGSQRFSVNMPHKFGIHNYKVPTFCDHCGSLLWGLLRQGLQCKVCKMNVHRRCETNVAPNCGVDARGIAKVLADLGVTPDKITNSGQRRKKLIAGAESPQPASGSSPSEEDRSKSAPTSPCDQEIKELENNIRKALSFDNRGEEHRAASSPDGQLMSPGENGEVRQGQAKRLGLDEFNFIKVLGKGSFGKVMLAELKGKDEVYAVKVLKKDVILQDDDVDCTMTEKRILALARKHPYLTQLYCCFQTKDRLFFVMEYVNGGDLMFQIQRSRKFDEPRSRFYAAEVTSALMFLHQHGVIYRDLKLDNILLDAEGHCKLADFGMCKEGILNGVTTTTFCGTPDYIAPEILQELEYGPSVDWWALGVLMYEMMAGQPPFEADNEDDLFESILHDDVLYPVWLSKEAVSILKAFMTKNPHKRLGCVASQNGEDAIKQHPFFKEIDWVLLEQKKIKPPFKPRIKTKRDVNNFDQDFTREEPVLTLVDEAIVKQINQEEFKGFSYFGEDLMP", "assay": "Inhibition of PKCepsilon by SPA"}, "[5]": {"biological_target": "Protein kinase C eta type (Homo sapiens, UniProt P24723)", "sequence (P24723 whole entry)": "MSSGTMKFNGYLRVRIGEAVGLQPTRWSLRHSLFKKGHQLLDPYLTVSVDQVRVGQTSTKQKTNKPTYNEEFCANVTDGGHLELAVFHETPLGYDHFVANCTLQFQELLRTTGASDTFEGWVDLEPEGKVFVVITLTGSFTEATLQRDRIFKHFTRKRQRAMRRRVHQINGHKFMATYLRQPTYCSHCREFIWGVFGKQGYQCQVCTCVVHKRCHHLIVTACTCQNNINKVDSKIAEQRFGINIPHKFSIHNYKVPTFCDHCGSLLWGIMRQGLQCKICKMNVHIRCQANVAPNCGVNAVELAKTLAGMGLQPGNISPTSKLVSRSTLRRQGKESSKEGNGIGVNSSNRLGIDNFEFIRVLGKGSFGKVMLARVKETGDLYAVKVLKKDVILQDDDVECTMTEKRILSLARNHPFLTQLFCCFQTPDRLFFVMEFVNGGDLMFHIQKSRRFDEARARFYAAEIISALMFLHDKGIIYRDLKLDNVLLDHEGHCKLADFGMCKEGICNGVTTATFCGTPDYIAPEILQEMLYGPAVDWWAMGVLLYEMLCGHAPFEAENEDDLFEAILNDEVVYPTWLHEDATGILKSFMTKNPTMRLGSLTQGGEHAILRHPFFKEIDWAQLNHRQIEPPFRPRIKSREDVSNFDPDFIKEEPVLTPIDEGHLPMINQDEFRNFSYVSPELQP", "assay": "Inhibition of PKCeta by SPA"}, "[6]": {"biological_target": "Protein kinase C theta type (Homo sapiens, UniProt Q04759)", "sequence (Q04759 whole entry)": "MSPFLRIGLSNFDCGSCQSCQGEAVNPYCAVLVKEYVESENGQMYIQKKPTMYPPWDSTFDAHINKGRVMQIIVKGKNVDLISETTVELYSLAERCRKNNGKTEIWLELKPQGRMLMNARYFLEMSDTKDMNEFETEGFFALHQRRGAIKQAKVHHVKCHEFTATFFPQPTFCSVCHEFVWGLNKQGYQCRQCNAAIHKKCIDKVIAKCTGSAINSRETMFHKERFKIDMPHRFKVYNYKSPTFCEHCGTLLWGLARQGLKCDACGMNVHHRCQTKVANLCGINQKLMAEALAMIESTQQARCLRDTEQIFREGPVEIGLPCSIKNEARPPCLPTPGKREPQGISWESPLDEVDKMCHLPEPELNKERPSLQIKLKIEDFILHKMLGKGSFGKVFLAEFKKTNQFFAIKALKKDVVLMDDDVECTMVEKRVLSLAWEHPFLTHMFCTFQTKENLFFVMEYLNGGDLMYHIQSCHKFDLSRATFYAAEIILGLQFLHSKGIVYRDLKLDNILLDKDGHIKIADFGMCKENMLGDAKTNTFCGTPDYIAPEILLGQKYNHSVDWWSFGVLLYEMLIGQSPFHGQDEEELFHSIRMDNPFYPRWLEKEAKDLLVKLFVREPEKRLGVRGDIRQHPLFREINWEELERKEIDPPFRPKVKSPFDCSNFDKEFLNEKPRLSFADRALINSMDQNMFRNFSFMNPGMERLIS", "assay": "Inhibition of PKCtheta by SPA"}, "[7]": {"assay": "Dissociation constant, pKa of the compound", "type": "physicochemical"}, "cells": {"assay": "cells", "conditions": "Homo sapiens, Jurkat"}}, "data": [{"molecule": "CN1CCN(c2cccc(C3=C(c4c[nH]c5ccccc45)C(=O)NC3=O)c2)CC1", "values": [{"measurement": "IC50", "setting": "[1]", "value": 7.1, "unit": "nM"}, {"measurement": "IC50", "setting": "[2]", "value": 36, "unit": "nM"}, {"measurement": "IC50", "setting": "[3]", "value": 97, "unit": "nM"}, {"measurement": "IC50", "setting": "[4]", "value": 59, "unit": "nM"}, {"measurement": "IC50", "setting": "[5]", "value": 36, "unit": "nM"}, {"measurement": "IC50", "setting": "[6]", "value": 76, "unit": "nM"}, {"measurement": "pKa", "setting": "[7]", "value": 7.5}, {"measurement": "IC50", "setting": "cells", "value": 277, "unit": "nM"}]}]}
